Measurements reported in publication doi:10.1101/2023.03.24.534094v2 (biorxiv, 2023).
Read-outs that look alike come from different tables or passages of the source. Values belong to the compound of their own block, whether it stands above or below them.

How the values were obtained:
Test in all cases: biochemical
DRAK2 = target: T1, DRAK2 (Homo sapiens, UniProt O94768)
T1 sequence (O94768 1-372): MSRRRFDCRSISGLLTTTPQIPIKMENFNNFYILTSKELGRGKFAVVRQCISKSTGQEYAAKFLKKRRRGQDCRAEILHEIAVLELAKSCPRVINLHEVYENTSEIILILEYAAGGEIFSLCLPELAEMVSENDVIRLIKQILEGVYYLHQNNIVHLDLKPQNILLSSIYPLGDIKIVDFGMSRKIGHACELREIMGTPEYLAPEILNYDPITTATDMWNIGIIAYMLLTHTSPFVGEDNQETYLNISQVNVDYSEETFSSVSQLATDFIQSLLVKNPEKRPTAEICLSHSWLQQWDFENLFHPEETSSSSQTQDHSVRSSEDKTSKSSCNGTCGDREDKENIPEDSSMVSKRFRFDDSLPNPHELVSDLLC

OSR1 = OSR1 (Homo sapiens, UniProt O95747)
Sequence of OSR1 (O95747 whole entry): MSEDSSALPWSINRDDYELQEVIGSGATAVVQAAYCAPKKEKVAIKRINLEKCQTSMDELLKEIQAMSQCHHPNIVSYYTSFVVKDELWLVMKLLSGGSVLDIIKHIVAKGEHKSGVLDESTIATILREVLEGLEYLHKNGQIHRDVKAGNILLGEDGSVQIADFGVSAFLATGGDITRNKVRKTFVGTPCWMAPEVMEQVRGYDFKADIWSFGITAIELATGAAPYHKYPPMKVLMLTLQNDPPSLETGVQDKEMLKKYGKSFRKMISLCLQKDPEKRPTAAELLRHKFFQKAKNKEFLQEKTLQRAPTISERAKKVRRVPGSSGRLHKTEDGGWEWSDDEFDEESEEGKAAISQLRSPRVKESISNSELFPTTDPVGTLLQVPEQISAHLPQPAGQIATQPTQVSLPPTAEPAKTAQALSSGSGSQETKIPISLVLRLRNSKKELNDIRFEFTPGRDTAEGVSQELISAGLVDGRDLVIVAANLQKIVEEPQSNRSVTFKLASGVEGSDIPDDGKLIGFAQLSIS

DMPK1 = target: T2, DMPK1 (Homo sapiens, UniProt Q09013)
T2 sequence (Q09013 1-629): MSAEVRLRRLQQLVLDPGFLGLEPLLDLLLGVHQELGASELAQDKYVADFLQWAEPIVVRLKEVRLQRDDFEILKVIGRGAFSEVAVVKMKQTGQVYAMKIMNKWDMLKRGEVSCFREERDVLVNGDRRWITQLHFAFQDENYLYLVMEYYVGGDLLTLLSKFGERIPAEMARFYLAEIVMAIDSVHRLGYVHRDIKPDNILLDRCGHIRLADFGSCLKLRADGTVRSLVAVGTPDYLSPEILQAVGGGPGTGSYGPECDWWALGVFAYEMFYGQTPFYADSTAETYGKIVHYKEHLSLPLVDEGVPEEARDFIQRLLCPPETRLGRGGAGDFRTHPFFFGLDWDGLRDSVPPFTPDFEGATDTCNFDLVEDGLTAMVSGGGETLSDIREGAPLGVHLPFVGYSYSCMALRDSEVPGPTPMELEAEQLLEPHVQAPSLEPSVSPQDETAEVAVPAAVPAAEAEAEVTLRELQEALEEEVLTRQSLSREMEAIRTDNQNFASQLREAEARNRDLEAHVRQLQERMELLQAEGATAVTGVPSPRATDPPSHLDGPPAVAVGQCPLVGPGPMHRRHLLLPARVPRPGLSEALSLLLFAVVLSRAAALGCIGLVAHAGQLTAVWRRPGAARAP

MYT1 = target: T3, MYT1 (Homo sapiens, UniProt Q99640)
T3 sequence (Q99640 1-499): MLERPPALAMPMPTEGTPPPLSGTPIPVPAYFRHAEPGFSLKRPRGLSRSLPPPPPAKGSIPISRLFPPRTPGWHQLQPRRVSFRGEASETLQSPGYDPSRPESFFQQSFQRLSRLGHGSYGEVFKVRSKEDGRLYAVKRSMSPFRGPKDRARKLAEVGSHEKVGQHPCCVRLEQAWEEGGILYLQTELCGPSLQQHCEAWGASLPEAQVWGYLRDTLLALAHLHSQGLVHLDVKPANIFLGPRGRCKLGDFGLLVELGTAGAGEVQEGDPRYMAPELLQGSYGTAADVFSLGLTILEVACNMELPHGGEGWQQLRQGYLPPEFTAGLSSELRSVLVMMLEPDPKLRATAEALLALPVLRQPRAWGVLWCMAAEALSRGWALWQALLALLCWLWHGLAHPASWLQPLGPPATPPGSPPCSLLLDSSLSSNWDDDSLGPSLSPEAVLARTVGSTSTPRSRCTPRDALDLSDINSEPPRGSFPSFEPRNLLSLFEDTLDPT

CaMK2b = CaMK2b (Homo sapiens, UniProt Q13554)
Sequence of CaMK2b (Q13554 whole entry): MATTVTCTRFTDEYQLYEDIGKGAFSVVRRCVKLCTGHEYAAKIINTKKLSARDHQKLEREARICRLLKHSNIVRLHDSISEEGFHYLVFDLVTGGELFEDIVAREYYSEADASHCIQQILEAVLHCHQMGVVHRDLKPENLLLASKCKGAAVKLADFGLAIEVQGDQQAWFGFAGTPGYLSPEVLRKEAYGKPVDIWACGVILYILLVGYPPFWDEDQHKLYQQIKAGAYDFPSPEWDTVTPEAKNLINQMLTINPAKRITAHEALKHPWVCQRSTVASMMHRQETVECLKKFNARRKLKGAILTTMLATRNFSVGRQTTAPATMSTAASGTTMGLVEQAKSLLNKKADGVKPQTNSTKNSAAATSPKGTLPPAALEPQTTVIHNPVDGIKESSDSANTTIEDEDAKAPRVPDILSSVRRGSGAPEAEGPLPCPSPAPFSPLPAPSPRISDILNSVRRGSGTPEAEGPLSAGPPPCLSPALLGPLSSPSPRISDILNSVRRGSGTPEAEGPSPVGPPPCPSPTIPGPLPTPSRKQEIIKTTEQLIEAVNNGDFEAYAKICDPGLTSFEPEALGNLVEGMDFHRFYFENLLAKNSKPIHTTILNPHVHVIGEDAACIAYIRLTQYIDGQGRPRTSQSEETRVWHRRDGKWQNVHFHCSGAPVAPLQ

SRC = SRC (Homo sapiens, UniProt P12931)
Sequence of SRC (P12931 whole entry): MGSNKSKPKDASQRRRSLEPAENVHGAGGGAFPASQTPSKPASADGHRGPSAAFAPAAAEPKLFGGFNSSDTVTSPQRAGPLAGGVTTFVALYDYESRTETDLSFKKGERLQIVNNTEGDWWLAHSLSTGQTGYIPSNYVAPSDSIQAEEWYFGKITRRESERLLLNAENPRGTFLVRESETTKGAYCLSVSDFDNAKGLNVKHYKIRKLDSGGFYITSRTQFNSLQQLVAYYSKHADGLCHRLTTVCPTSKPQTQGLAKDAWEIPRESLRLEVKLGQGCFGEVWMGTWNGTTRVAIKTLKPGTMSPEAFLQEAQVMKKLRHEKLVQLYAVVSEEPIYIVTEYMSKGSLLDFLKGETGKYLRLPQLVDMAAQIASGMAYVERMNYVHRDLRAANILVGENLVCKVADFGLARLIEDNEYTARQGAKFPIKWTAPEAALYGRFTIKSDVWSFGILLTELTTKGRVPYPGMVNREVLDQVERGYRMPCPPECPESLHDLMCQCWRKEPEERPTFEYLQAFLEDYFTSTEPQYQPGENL

NQO2A = target: T4, NQO2A (Homo sapiens, UniProt P16083)
T4 sequence (P16083 1-231): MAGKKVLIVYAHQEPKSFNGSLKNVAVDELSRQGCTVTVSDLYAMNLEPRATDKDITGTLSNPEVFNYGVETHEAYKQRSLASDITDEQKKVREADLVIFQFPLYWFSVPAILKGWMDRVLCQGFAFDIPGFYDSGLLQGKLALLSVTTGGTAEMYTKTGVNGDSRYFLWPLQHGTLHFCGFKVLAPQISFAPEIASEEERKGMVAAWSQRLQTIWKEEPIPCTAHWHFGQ

CLK3 = CLK3 (Homo sapiens, UniProt P49761)
Sequence of CLK3 (P49761 whole entry): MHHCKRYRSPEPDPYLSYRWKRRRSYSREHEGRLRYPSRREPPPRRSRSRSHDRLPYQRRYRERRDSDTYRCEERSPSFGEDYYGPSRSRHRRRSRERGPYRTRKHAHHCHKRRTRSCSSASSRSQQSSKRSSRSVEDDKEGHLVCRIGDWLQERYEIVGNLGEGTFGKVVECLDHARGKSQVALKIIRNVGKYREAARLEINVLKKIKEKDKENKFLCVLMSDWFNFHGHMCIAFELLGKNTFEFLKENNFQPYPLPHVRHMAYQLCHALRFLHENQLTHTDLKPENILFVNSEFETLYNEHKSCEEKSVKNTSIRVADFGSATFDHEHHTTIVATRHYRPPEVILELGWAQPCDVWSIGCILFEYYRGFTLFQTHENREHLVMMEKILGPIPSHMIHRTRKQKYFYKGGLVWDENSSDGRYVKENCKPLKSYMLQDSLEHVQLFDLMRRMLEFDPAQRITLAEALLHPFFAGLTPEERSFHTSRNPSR

MARK3 = MARK3 (Homo sapiens, UniProt P27448)
Sequence of MARK3 (P27448 whole entry): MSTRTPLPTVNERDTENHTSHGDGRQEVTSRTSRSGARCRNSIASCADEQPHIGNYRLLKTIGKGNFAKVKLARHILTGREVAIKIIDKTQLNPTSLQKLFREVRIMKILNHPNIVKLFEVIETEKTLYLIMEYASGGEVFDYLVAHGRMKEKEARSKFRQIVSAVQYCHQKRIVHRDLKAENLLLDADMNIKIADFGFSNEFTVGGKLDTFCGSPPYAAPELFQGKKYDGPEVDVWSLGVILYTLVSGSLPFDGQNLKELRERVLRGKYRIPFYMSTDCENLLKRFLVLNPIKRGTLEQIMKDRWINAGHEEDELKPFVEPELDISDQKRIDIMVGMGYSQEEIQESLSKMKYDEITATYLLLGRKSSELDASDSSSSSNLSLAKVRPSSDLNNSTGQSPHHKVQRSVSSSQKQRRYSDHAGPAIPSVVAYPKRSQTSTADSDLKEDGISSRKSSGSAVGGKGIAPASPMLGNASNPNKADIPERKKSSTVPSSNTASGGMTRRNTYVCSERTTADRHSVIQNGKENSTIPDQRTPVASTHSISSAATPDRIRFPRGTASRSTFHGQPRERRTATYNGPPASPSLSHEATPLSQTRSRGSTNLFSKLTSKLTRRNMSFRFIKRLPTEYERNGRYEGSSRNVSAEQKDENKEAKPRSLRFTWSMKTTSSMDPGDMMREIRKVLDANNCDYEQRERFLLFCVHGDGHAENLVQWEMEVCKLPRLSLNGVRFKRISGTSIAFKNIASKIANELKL

CK2a2 = CK2a2 (Homo sapiens, UniProt P19784)
Sequence of CK2a2 (P19784 whole entry): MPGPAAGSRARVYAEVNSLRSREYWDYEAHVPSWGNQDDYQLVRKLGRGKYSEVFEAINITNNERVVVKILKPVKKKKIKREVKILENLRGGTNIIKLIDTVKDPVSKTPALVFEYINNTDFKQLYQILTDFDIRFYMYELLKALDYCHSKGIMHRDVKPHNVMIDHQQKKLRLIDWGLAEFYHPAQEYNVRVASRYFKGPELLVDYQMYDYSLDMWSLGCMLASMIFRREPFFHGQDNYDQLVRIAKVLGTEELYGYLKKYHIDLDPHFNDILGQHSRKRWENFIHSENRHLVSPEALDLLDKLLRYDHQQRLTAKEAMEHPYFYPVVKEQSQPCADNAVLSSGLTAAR

EpHA2 = EpHA2 (Homo sapiens, UniProt P29317)
Sequence of EpHA2 (P29317 whole entry): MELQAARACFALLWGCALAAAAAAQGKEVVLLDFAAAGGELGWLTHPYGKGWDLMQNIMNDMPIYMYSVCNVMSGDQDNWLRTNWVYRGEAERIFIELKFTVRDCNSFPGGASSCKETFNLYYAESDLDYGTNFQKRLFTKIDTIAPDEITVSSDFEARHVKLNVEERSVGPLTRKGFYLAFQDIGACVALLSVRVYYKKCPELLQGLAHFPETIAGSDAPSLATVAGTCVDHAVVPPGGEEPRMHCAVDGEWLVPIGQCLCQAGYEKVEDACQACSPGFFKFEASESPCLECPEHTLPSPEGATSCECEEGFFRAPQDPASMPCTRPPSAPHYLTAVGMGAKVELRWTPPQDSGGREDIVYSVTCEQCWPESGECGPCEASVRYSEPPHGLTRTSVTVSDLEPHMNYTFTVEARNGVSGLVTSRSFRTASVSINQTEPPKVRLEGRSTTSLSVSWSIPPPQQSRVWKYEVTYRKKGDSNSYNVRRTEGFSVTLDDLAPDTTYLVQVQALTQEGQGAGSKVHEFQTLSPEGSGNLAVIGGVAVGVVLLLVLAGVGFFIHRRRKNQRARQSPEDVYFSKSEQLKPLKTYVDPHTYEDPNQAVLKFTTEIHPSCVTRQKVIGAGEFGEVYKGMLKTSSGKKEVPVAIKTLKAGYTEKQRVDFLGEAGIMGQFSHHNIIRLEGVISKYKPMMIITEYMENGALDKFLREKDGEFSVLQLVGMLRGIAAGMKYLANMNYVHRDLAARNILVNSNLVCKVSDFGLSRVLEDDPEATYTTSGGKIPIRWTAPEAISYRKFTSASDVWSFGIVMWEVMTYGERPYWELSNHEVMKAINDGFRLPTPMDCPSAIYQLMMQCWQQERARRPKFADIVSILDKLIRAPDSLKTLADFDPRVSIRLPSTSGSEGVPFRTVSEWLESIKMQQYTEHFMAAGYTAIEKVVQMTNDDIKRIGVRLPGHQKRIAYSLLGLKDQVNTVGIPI

Structure (SMILES): CNc1ncc2cc(-c3cc(F)ccc3F)c(=O)n(CCCCN)c2n1 [compound 5, 8-(4-Aminobutyl)-6-(2,5-difluorophenyl)-2-(methylamino)pyrido[2,3-d]pyrimidin-7(8H)-one]
ΔTm at 10 µM (DRAK2; read-out: dTm MR22 (5)): 0.1 °C
ΔTm at 10 µM (OSR1; read-out: dTm MR22 (5)): -0.8 °C
ΔTm at 10 µM (DMPK1; read-out: dTm MR22 (5)): 0.9 °C
ΔTm at 10 µM (MYT1; read-out: dTm MR22 (5)): -2.1 °C
ΔTm at 10 µM (CaMK2b; read-out: dTm MR22 (5)): -0.6 °C
ΔTm at 10 µM (SRC; read-out: dTm MR22 (5)): 0.7 °C
ΔTm at 10 µM (NQO2A; read-out: dTm MR22 (5)): -0.2 °C
ΔTm at 10 µM (CLK3; read-out: dTm MR22 (5)): -0.4 °C
ΔTm at 10 µM (MARK3; read-out: dTm MR22 (5)): 1.1 °C
ΔTm at 10 µM (CK2a2; read-out: dTm MR22 (5)): -1 °C
ΔTm at 10 µM (EpHA2; read-out: dTm MR22 (5)): 6.5 °C

Structure (SMILES): CNc1ncc2cc(-c3ccc(-c4cccc(C)n4)cc3Cl)c(=O)n(CC3OCC(N)CO3)c2n1 (centres unmarked) [compound 2, G-5555]
dTm G-5555 (2) (DRAK2; 10 µM, binder): -0.3 °C
dTm G-5555 (2) (OSR1; 10 µM, binder): 0.2 °C
dTm G-5555 (2) (DMPK1; 10 µM, binder): -0.3 °C
dTm G-5555 (2) (MYT1; 10 µM, binder): -2.1 °C
dTm G-5555 (2) (CaMK2b; 10 µM, binder): -1.7 °C
dTm G-5555 (2) (SRC; 10 µM, binder): -0.2 °C
dTm G-5555 (2) (CLK3; 10 µM, binder): 0.1 °C
dTm G-5555 (2) (MARK3; 10 µM, binder): 8.8 °C
dTm G-5555 (2) (CK2a2; 10 µM, binder): -0.6 °C
dTm G-5555 (2) (EpHA2; 10 µM, binder): 2.2 °C

Structure (SMILES): CNc1ncc2cc(-c3ccccc3Cl)c(=O)n(CCCCN)c2n1 [compound 4, 8-(4-Aminobutyl)-6-(2-chlorophenyl)-2-(methylamino)pyrido[2,3-d]pyrimidin-7(8H)-one]
ΔTm at 10 µM (DRAK2; read-out: dTm MR21 (4)): -0.5 °C
ΔTm at 10 µM (OSR1; read-out: dTm MR21 (4)): 1.3 °C
ΔTm at 10 µM (DMPK1; read-out: dTm MR21 (4)): 2.8 °C
ΔTm at 10 µM (MYT1; read-out: dTm MR21 (4)): -2.3 °C
ΔTm at 10 µM (CaMK2b; read-out: dTm MR21 (4)): -1.1 °C
ΔTm at 10 µM (SRC; read-out: dTm MR21 (4)): 2.6 °C
ΔTm at 10 µM (NQO2A; read-out: dTm MR21 (4)): -1 °C
ΔTm at 10 µM (CLK3; read-out: dTm MR21 (4)): 0 °C
ΔTm at 10 µM (MARK3; read-out: dTm MR21 (4)): 5.3 °C
ΔTm at 10 µM (CK2a2; read-out: dTm MR21 (4)): -0.3 °C

Results, then the compound that gave them:

ΔTm at 10 µM (DRAK2; read-out: dTm 6): -0.2 °C
ΔTm at 10 µM (OSR1; read-out: dTm 6): 0.3 °C
ΔTm at 10 µM (DMPK1; read-out: dTm 6): 1.2 °C
ΔTm at 10 µM (MYT1; read-out: dTm 6): -1.4 °C
ΔTm at 10 µM (CaMK2b; read-out: dTm 6): 0.1 °C
ΔTm at 10 µM (SRC; read-out: dTm 6): 0.2 °C
ΔTm at 10 µM (NQO2A; read-out: dTm 6): 0 °C
ΔTm at 10 µM (CLK3; read-out: dTm 6): -0.3 °C
ΔTm at 10 µM (MARK3; read-out: dTm 6): 3.5 °C
ΔTm at 10 µM (CK2a2; read-out: dTm 6): -0.1 °C
ΔTm at 10 µM (EpHA2; read-out: dTm 6): 6.7 °C
Structure (SMILES): CNc1ncc2cc(-c3cc(Br)ccc3Cl)c(=O)n(CCCCN)c2n1 [compound 6, 8-(4-Aminobutyl)-6-(5-bromo-2-chlorophenyl)-2-(methylamino)pyrido[2,3-d]pyrimidin-7(8H)-one]

ΔTm at 10 µM (DRAK2; read-out: dTm 7): 0.1 °C
ΔTm at 10 µM (OSR1; read-out: dTm 7): 0 °C
ΔTm at 10 µM (DMPK1; read-out: dTm 7): -0.1 °C
ΔTm at 10 µM (MYT1; read-out: dTm 7): 0.1 °C
ΔTm at 10 µM (CaMK2b; read-out: dTm 7): 0.2 °C
ΔTm at 10 µM (SRC; read-out: dTm 7): 0.1 °C
ΔTm at 10 µM (NQO2A; read-out: dTm 7): 0.6 °C
ΔTm at 10 µM (CLK3; read-out: dTm 7): 0.5 °C
ΔTm at 10 µM (MARK3; read-out: dTm 7): 1.7 °C
ΔTm at 10 µM (CK2a2; read-out: dTm 7): 0.1 °C
ΔTm at 10 µM (EpHA2; read-out: dTm 7): 4.8 °C
Structure (SMILES): CNc1ncc2cc(-c3cc(Br)ccc3Cl)c(=O)n(C[C@H]3OC[C@H](N)CO3)c2n1 [compound 7, 8-(((2r,5r)-5-Amino-1,3-dioxan-2-yl)methyl)-6-(5-bromo-2-chlorophenyl)-2-(methylamino)pyrido[2,3-d]pyrimidin-7(8H)-one]
